The values that follow come from patent publication US8722897B2, “Metal complexes of thiourea and derivatives as metal delivering anti-cancer and anti-inflammatory agents” (priority 2010, dated 2014).

One data set addresses T1, Recombinant rat TrxR1 (Rattus norvegicus, UniProt O89049).
T1 construct: purchased ICMO Corp, Sweden (so in the source)
T1 sequence (O89049 1-499): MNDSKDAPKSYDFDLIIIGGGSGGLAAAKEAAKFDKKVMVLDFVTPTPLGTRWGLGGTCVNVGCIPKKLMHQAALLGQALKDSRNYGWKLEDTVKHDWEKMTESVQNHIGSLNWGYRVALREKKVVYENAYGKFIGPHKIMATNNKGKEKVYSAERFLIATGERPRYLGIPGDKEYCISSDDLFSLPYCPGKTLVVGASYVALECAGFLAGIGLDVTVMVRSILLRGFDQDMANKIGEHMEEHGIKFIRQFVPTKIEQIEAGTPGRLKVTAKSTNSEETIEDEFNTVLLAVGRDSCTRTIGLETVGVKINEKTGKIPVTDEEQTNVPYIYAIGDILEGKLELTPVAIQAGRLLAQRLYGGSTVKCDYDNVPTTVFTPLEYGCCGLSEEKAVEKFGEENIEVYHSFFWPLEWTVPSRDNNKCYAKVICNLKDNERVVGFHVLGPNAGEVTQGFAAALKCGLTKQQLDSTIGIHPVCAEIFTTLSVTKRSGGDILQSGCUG
In words: biochemical. Conditions: preformed EI*. The protocol:
1 nM Recombinant rat TrxR1 (ICMO Corp, Sweden) was reduced with 0.2 mM NADPH and then incubated with 0.3-10 nM of 1 for 30 min in a buffer of 100 mM phosphate buffer, pH 7.4 and 1 mM EDTA. The residual activities were measured using 0.75, 1.5 or 3 mM DTNB (FIG. 7A). The data were fit into Eq. 1 using GraphPad Prism 3.0 software. vs/vo=(Et−Ki−It+((It+Ki′−Et)^2+(4KiEt))^1/2)/(2Et) (1) Eq. 1 describes the rate law of tight-binding inhibition in which case the inhibitor concentration is substantially depleted owing to formation of enzyme-inhibitor complex. In this equation, vo is the observed velocity in the absence of inhibitor, vs is the steady-state velocity in the presence of inhibitor, Et is the total enzyme concentration, and I is the inhibitor concentration. […] Ki=Ki*(1+S/Km) (2) Determination of Ki by Progress Curve Analysis ^35, 36 (FIG. 8)

The next data set deals with T2, TrxR1 (Rattus norvegicus, UniProt O89049).
T2 sequence (O89049 1-499): T1 sequence (O89049 1-499)
In words: biochemical. Particulars: for Ki: progress curve analysis. The protocol:
This was further studied by progress curve analysis (FIG. 8). ^24, 25 1 was added in excess (3-100 nM) to a reaction mixture containing 0.2 mM NADPH, 1 nM TrxR and 3 mM disulfide substrate 5,5′-dithiobis(2-nitrobenzoic acid) (DTNB) in phosphate buffer (pH 7.4). […] This was analyzed using Eq. 1 (Example 6), where P is the product concentration, vi and vf are the initial and final steady-state velocities, respectively, and kapp is the apparent first-order rate constant for establishment of the final steady-state inhibition. A plot of the kapp against the inhibitor concentrations followed a hyperbolic function (FIG. 8B). This is indicative of a two-step, tight-binding inhibition mechanism:
[formula] where EI is the initial collision complex, k3 is the forward isomerization rate, and k4 is the reverse isomerization rate. In this scheme, binding involves rapid formation of an initial collision complex (EI) that subsequently undergoes isomerization to the final slow dissociating enzyme-inhibitor complex (EI*). The k3, k4 and the dissociation constant of the initial collision complex EI (Ki′) can be obtained by fitting the data to Eq. 2.
1 was added in excess (3-100 nM) to a reaction mixture containing 0.2 mM NADPH, 1 nM TrxR1, 3 mM disulfide substrate 5,5′-dithiobis(2-nitrobenzoic acid) (DTNB), 100 mM phosphate buffer, pH 7.4 and 1 mM EDTA. The progress curves are non-linear, showing two-phase equilibria typical of slow-onset tight-binding inhibition. The data was fit into Eq. 1 using GraphPad Prism 3.0 software, P=vft+((vi−vf/kapp)(1−e^−kappt) (1) where P is the product concentration, vi and vf are the initial and final steady-state velocities, respectively, and kapp is the apparent first-order rate constant for establishment of the final steady-state inhibition. A plot of the kapp against the inhibitor concentrations followed a hyperbolic function (FIG. 8B). This is indicative of a two-step, tight-binding inhibition mechanism:
[formula] where EI is the initial collision complex, k3 is the forward isomerization rate, and k4 is the reverse isomerization rate. […]

On to `COc1ccc(N2CCN(c3ccc(OC)cc3)C2=[S+][Au-][S+]=C2N(c3ccc(OC)cc3)CCN2c2ccc(OC)cc2)cc1` [complex 1, [Au(TU)2]Cl], for which the Ki on Recombinant rat TrxR1 (apparent inhibitory constant (Ki), 1 nM TrxR1, 30 min preincubation, steady state rate law) was found to be 670 pM; on Recombinant rat TrxR1 (inhibitory constant Ki*, corrected for substrate competition, Km 0.2 mM), 36 pM; on TrxR1 (dissociation constant of the initial collision complex EI (Ki′)) it was 1390 pM; on TrxR1 (overall inhibitory constant Ki*, Eq. 3), 18 pM. For the same compound, on TrxR1, the “recovery of enzyme activities after removal of the free inhibitors by ultrafiltration” value was “could not be recovered”.
